Test results taken from patent publication US20260022142A1, “MACROCYCLIC IMMUNOMODULATORS” (Bristol-Myers Squibb Company, priority 2022, published 2026).
Bridge positions count the residues as written; N and C are the ends. Square brackets hold non-standard residues; d marks the D form. Peptide text beside a SMILES is read from it. * marks the point of attachment. Tyr(3,5-F2) = N[C@@H](Cc1cc(F)c(O)c(F)c1)C(=O)O; Phe(4-CONH2) = NC(=O)c1ccc(C[C@H](N)C(=O)O)cc1; Phe(4-COOH) = N[C@@H](Cc1ccc(C(=O)O)cc1)C(=O)O; Phe(4-CH2NH2) = NCc1ccc(C[C@H](N)C(=O)O)cc1; Tyr(3-Cl) = N[C@@H](Cc1ccc(O)c(Cl)c1)C(=O)O; Bip = N[C@@H](Cc1ccc(-c2ccccc2)cc1)C(=O)O; Phe(3-CN) = N#Cc1cccc(C[C@H](N)C(=O)O)c1; Phe(3-F) = N[C@@H](Cc1cccc(F)c1)C(=O)O; Phe(3-Me) = Cc1cccc(C[C@H](N)C(=O)O)c1; Phe(4-F) = N[C@@H](Cc1ccc(F)cc1)C(=O)O; Phe(4-Me) = Cc1ccc(C[C@H](N)C(=O)O)cc1; Phe(2-Me) = Cc1ccccc1C[C@H](N)C(=O)O; 3Pal = N[C@@H](Cc1cccnc1)C(=O)O; 4Pal = N[C@@H](Cc1ccncc1)C(=O)O; Cha = N[C@@H](CC1CCCCC1)C(=O)O; Carboxymethyl = O=C(O)C*; Orn = NCCC[C@H](N)C(=O)O; Aun = NCCCCCCCCCCC(=O)O; Dab = NCC[C@H](N)C(=O)O; Dap = NC[C@H](N)C(=O)O; AEEA = NCCOCCOCC(=O)O

Molecular target: T1, PD-1/PD-L1 interaction (PE-labeled human PD-L1-Ig binding to Jurkat cell line over-expressing human PD-1) (Homo sapiens, UniProt Q15116)
T1 construct: expressed in transfected cells; host or cells: Jurkat
Test: Jurkat-PD-1 Cell Binding High-Content Screening Assay (CBA)
Assay type: cell-based
Settings: Jurkat cell line over-expressing human PD-1; PE-labeled PD-L1-Ig 20 nM final; read-out: Jurkat hPD1-PDL1 IC50
In short: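 Binding of fluorescent PD-L1-Ig (20 nM final) to Jurkat-PD-1 cells was measured by automated imaging after 1 h, following a 2 h compound pre-treatment at 37° C.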

T1 sequence (Q15116 25-288): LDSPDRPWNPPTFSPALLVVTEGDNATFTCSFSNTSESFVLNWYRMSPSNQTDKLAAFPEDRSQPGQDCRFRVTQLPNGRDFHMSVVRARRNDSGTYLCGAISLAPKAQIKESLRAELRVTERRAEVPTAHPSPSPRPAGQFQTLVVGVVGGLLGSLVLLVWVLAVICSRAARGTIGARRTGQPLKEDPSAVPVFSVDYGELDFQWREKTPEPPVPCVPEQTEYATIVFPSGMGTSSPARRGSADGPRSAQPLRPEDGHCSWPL

| Structure (SMILES) | IC50 |
| --- | --- |
| Cc1cccc(C[C@@H]2NC(=O)[C@H](CC(=O)O)NC(=O)[C@H](Cc3ccc(OCC(=O)O)cc3)NC(=O)[C@H](CN)NC(=O)CSC[C@@H](C(=O)N[C@@H](CCN)C(=O)NCCOCCOCC(=O)NCCCCCCCCCCC(=O)O)NC(=O)[C@H](CCCN)NC(=O)[C@H](C(C)C)NC(=O)[C@H](CC3CCCCC3)NC(=O)[C@H](CCN)NC(=O)[C@@H](CC(C)C)NC(=O)[C@H](CCCN)NC(=O)[C@H](Cc3ccc(C(=O)O)cc3)NC(=O)[C@H](Cc3ccc(-c4ccccc4)cc3)NC(=O)[C@H](Cc3ccc(O)cc3)NC2=O)c1 [Compound 2042] ({CH2CO}-[Dap]Y(Carboxymethyl)D[Phe(3-Me)]Y[Bip][Phe(4-COOH)][Orn][dL][Dab][Cha]V[Orn]C[Dab][AEEA][Aun]-OH; thioether N-14) | 5 nM |
| Cc1cccc(C[C@@H]2NC(=O)[C@H](CC(=O)O)NC(=O)[C@H](Cc3ccc(OCC(=O)O)cc3)NC(=O)[C@H](CN)NC(=O)CSC[C@@H](C(=O)N[C@@H](CCN)C(=O)NCCOCCOCC(=O)NCCCCCCCCCCC(=O)O)NC(=O)[C@H](CCCN)NC(=O)[C@H](C(C)C)NC(=O)[C@H](CC3CCCCC3)NC(=O)[C@H](CCN)NC(=O)[C@@H](CC(C)C)NC(=O)[C@H](CCCN)NC(=O)[C@H](Cc3ccc(C(N)=O)cc3)NC(=O)[C@H](Cc3ccc(-c4ccccc4)cc3)NC(=O)[C@H](Cc3ccc(O)cc3)NC2=O)c1 [Compound 2045] ({CH2CO}-[Dap]Y(Carboxymethyl)D[Phe(3-Me)]Y[Bip][Phe(4-CONH2)][Orn][dL][Dab][Cha]V[Orn]C[Dab][AEEA][Aun]-OH; thioether N-14) | 7.2 nM |
| Cc1cccc(C[C@@H]2NC(=O)[C@H](CC(=O)O)NC(=O)[C@H](Cc3ccc(OCC(=O)O)cc3)NC(=O)[C@H](CN)NC(=O)CSC[C@@H](C(=O)N[C@@H](CCN)C(=O)NCCOCCOCC(=O)NCCCCCCCCCCC(=O)O)NC(=O)[C@H](CCCN)NC(=O)[C@H](C(C)C)NC(=O)[C@H](CC3CCCCC3)NC(=O)[C@H](CCN)NC(=O)[C@@H](CC(C)C)NC(=O)[C@H](CCCN)NC(=O)[C@H](Cc3ccc(CN)cc3)NC(=O)[C@H](Cc3ccc(-c4ccccc4)cc3)NC(=O)[C@H](Cc3ccc(O)cc3)NC2=O)c1 [Compound 2046] ({CH2CO}-[Dap]Y(Carboxymethyl)D[Phe(3-Me)]Y[Bip][Phe(4-CH2NH2)][Orn][dL][Dab][Cha]V[Orn]C[Dab][AEEA][Aun]-OH; thioether N-14) | 9.7 nM |
| Cc1cccc(C[C@@H]2NC(=O)[C@H](CC(=O)O)NC(=O)[C@H](Cc3ccc(OCC(=O)O)cc3)NC(=O)[C@H](CN)NC(=O)CSC[C@@H](C(=O)N[C@@H](CCN)C(=O)NCCOCCOCC(=O)NCCCCCCCCCCC(=O)O)NC(=O)[C@H](CCCN)NC(=O)[C@H](C(C)C)NC(=O)[C@H](CC3CCCCC3)NC(=O)[C@H](CCN)NC(=O)[C@@H](CC(C)C)NC(=O)[C@H](CCCN)NC(=O)[C@H](Cc3ccccc3C)NC(=O)[C@H](Cc3ccc(-c4ccccc4)cc3)NC(=O)[C@H](Cc3ccc(O)cc3)NC2=O)c1 [Compound 2048] ({CH2CO}-[Dap]Y(Carboxymethyl)D[Phe(3-Me)]Y[Bip][Phe(2-Me)][Orn][dL][Dab][Cha]V[Orn]C[Dab][AEEA][Aun]-OH; thioether N-14) | 12.4 nM |
| Cc1cccc(C[C@@H]2NC(=O)[C@H](CC(=O)O)NC(=O)[C@H](Cc3ccc(OCC(=O)O)cc3)NC(=O)[C@H](CN)NC(=O)CSC[C@@H](C(=O)N[C@@H](CCN)C(=O)NCCOCCOCC(=O)NCCCCCCCCCCC(=O)O)NC(=O)[C@H](CCCN)NC(=O)[C@H](C(C)C)NC(=O)[C@H](CC3CCCCC3)NC(=O)[C@H](CCN)NC(=O)[C@@H](CC(C)C)NC(=O)[C@H](CCCN)NC(=O)[C@H](Cc3ccc(F)cc3)NC(=O)[C@H](Cc3ccc(-c4ccccc4)cc3)NC(=O)[C@H](Cc3ccc(O)cc3)NC2=O)c1 [Compound 2049] ({CH2CO}-[Dap]Y(Carboxymethyl)D[Phe(3-Me)]Y[Bip][Phe(4-F)][Orn][dL][Dab][Cha]V[Orn]C[Dab][AEEA][Aun]-OH; thioether N-14) | 16.9 nM |
| Cc1cccc(C[C@@H]2NC(=O)[C@H](CC(=O)O)NC(=O)[C@H](Cc3ccc(OCC(=O)O)cc3)NC(=O)[C@H](CN)NC(=O)CSC[C@@H](C(=O)N[C@@H](CCN)C(=O)NCCOCCOCC(=O)NCCCCCCCCCCC(=O)O)NC(=O)[C@H](CCCN)NC(=O)[C@H](C(C)C)NC(=O)[C@H](CC3CCCCC3)NC(=O)[C@H](CCN)NC(=O)[C@@H](CC(C)C)NC(=O)[C@H](CCCN)NC(=O)[C@H](Cc3cccc(C#N)c3)NC(=O)[C@H](Cc3ccc(-c4ccccc4)cc3)NC(=O)[C@H](Cc3ccc(O)cc3)NC2=O)c1 [Compound 2051] ({CH2CO}-[Dap]Y(Carboxymethyl)D[Phe(3-Me)]Y[Bip][Phe(3-CN)][Orn][dL][Dab][Cha]V[Orn]C[Dab][AEEA][Aun]-OH; thioether N-14) | 32.6 nM |
| Cc1cccc(C[C@@H]2NC(=O)[C@H](CC(=O)O)NC(=O)[C@H](Cc3ccc(OCC(=O)O)cc3)NC(=O)[C@H](CN)NC(=O)CSC[C@@H](C(=O)N[C@@H](CCN)C(=O)NCCOCCOCC(=O)NCCCCCCCCCCC(=O)O)NC(=O)[C@H](CCCN)NC(=O)[C@H](C(C)C)NC(=O)[C@H](CC3CCCCC3)NC(=O)[C@H](CCN)NC(=O)[C@@H](CC(C)C)NC(=O)[C@H](CCCN)NC(=O)[C@H](Cc3cccc(F)c3)NC(=O)[C@H](Cc3ccc(-c4ccccc4)cc3)NC(=O)[C@H](Cc3ccc(O)cc3)NC2=O)c1 [Compound 2052] ({CH2CO}-[Dap]Y(Carboxymethyl)D[Phe(3-Me)]Y[Bip][Phe(3-F)][Orn][dL][Dab][Cha]V[Orn]C[Dab][AEEA][Aun]-OH; thioether N-14) | 14.7 nM |
| Cc1cccc(C[C@@H]2NC(=O)[C@H](CC(=O)O)NC(=O)[C@H](Cc3ccc(OCC(=O)O)cc3)NC(=O)[C@H](CN)NC(=O)CSC[C@@H](C(=O)N[C@@H](CCN)C(=O)NCCOCCOCC(=O)NCCCCCCCCCCC(=O)O)NC(=O)[C@H](CCCN)NC(=O)[C@H](C(C)C)NC(=O)[C@H](CC3CCCCC3)NC(=O)[C@H](CCN)NC(=O)[C@@H](CC(C)C)NC(=O)[C@H](CCCN)NC(=O)[C@H](Cc3ccncc3)NC(=O)[C@H](Cc3ccc(-c4ccccc4)cc3)NC(=O)[C@H](Cc3ccc(O)cc3)NC2=O)c1 [Compound 2053] ({CH2CO}-[Dap]Y(Carboxymethyl)D[Phe(3-Me)]Y[Bip][4Pal][Orn][dL][Dab][Cha]V[Orn]C[Dab][AEEA][Aun]-OH; thioether N-14) | 6.9 nM |
| Cc1ccc(C[C@@H]2NC(=O)[C@H](Cc3ccc(-c4ccccc4)cc3)NC(=O)[C@H](Cc3ccc(O)cc3)NC(=O)[C@H](Cc3cccc(C)c3)NC(=O)[C@H](CC(=O)O)NC(=O)[C@H](Cc3ccc(OCC(=O)O)cc3)NC(=O)[C@H](CN)NC(=O)CSC[C@@H](C(=O)N[C@@H](CCN)C(=O)NCCOCCOCC(=O)NCCCCCCCCCCC(=O)O)NC(=O)[C@H](CCCN)NC(=O)[C@H](C(C)C)NC(=O)[C@H](CC3CCCCC3)NC(=O)[C@H](CCN)NC(=O)[C@@H](CC(C)C)NC(=O)[C@H](CCCN)NC2=O)cc1 [Compound 2054] ({CH2CO}-[Dap]Y(Carboxymethyl)D[Phe(3-Me)]Y[Bip][Phe(4-Me)][Orn][dL][Dab][Cha]V[Orn]C[Dab][AEEA][Aun]-OH; thioether N-14) | 12.9 nM |
| Cc1cccc(C[C@@H]2NC(=O)[C@H](CC(=O)O)NC(=O)[C@H](Cc3ccc(OCC(=O)O)cc3)NC(=O)[C@H](CN)NC(=O)CSC[C@@H](C(=O)N[C@@H](CCN)C(=O)NCCOCCOCC(=O)NCCCCCCCCCCC(=O)O)NC(=O)[C@H](CCCN)NC(=O)[C@H](C(C)C)NC(=O)[C@H](CC3CCCCC3)NC(=O)[C@H](CCN)NC(=O)[C@@H](CC(C)C)NC(=O)[C@H](CCCN)NC(=O)[C@H](Cc3cccnc3)NC(=O)[C@H](Cc3ccc(-c4ccccc4)cc3)NC(=O)[C@H](Cc3ccc(O)cc3)NC2=O)c1 [Compound 2055] ({CH2CO}-[Dap]Y(Carboxymethyl)D[Phe(3-Me)]Y[Bip][3Pal][Orn][dL][Dab][Cha]V[Orn]C[Dab][AEEA][Aun]-OH; thioether N-14) | 7.9 nM |
| COc1ccc(C[C@@H]2NC(=O)[C@H](Cc3ccc(-c4ccccc4)cc3)NC(=O)[C@H](Cc3ccc(O)cc3)NC(=O)[C@H](Cc3cccc(C)c3)NC(=O)[C@H](CC(=O)O)NC(=O)[C@H](Cc3ccc(OCC(=O)O)cc3)NC(=O)[C@H](CN)NC(=O)CSC[C@@H](C(=O)N[C@@H](CCN)C(=O)NCCOCCOCC(=O)NCCCCCCCCCCC(=O)O)NC(=O)[C@H](CCCN)NC(=O)[C@H](C(C)C)NC(=O)[C@H](CC3CCCCC3)NC(=O)[C@H](CCN)NC(=O)[C@@H](CC(C)C)NC(=O)[C@H](CCCN)NC2=O)cc1 [Compound 2056] ({CH2CO}-[Dap]Y(Carboxymethyl)D[Phe(3-Me)]Y[Bip]Y(Me)[Orn][dL][Dab][Cha]V[Orn]C[Dab][AEEA][Aun]-OH; thioether N-14) | 12.6 nM |
| Cc1cccc(C[C@@H]2NC(=O)[C@H](CC(=O)O)NC(=O)[C@H](Cc3ccc(OCC(=O)O)cc3)NC(=O)[C@H](CN)NC(=O)CSC[C@@H](C(=O)N[C@@H](CCN)C(=O)NCCOCCOCC(=O)NCCCCCCCCCCC(=O)O)NC(=O)[C@H](CCCN)NC(=O)[C@H](C(C)C)NC(=O)[C@H](CC3CCCCC3)NC(=O)[C@H](CCN)NC(=O)[C@@H](CC(C)C)NC(=O)[C@H](CCCN)NC(=O)[C@H](Cc3ccc(O)c(Cl)c3)NC(=O)[C@H](Cc3ccc(-c4ccccc4)cc3)NC(=O)[C@H](Cc3ccc(O)cc3)NC2=O)c1 [Compound 2057] ({CH2CO}-[Dap]Y(Carboxymethyl)D[Phe(3-Me)]Y[Bip][Tyr(3-Cl)][Orn][dL][Dab][Cha]V[Orn]C[Dab][AEEA][Aun]-OH; thioether N-14) | 8 nM |
| Cc1cccc(C[C@@H]2NC(=O)[C@H](CC(=O)O)NC(=O)[C@H](Cc3ccc(OCC(=O)O)cc3)NC(=O)[C@H](CN)NC(=O)CSC[C@@H](C(=O)N[C@@H](CCN)C(=O)NCCOCCOCC(=O)NCCCCCCCCCCC(=O)O)NC(=O)[C@H](CCCN)NC(=O)[C@H](C(C)C)NC(=O)[C@H](CC3CCCCC3)NC(=O)[C@H](CCN)NC(=O)[C@@H](CC(C)C)NC(=O)[C@H](CCCN)NC(=O)[C@H](Cc3cc(F)c(O)c(F)c3)NC(=O)[C@H](Cc3ccc(-c4ccccc4)cc3)NC(=O)[C@H](Cc3ccc(O)cc3)NC2=O)c1 [Compound 2058] ({CH2CO}-[Dap]Y(Carboxymethyl)D[Phe(3-Me)]Y[Bip][Tyr(3,5-F2)][Orn][dL][Dab][Cha]V[Orn]C[Dab][AEEA][Aun]-OH; thioether N-14) | 4.7 nM |
